Columns and labels:
[1] = test system: Sinapis alba, Chrysanthemum segetum, Avena sativa, Stellaria media, Echinochloa crus-galli, Lolium multiflorum, Setaria viridis, Abutilon theophrasti …; assay: Pre-emergence action against weeds (greenhouse pot test, optical scoring); format: in vivo, monocotyledonous and dicotyledonous weed plants; settings: herbicide/safener combination, above all with safeners II-1, II-9, III-1, b-11, b-14, IX-A3; pre-emergence method; 500 g or less of herbicide (A) per hectare; 3 to 4 weeks
Excerpt: Seeds or rhizome pieces of monocotyledonous and dicotyledonous weed plants were placed in sandy loam soil in cardboard pots and covered with soil. The active compounds (A) and (B), formulated in the form of wettable powders or emulsion concentrates, were then applied to the surface of the covering soil in various dosages as aqueous suspensions or emulsions using a water application rate of 300 to 800 l/ha (converted).
After the treatment, the pots were placed in a greenhouse and kept under good growth conditions for the weeds. Optical scoring of the damage to the plants or emerged plants was carried out after emergence of the test plants after a trial period of 3 to 4 weeks, in comparison to untreated controls. As shown by the results, the tested herbicide/safener combinations have good herbicidal pre-emergence activity against a broad spectrum of weed grasses and broad-leaved weeds.

[2] = test system: Sinapis alba, Echinochloa crus-galli, Lolium multiflorum, Chrysanthemum segetum, Setaria viridis, Abutilon theophrasti, Amaranthus retroflexus, Panicum …; assay: Post-emergence action against weeds (greenhouse pot test, visual scoring); format: in vivo, monocotyledonous and dicotyledonous weeds; settings: herbicide/safener combination, above all with safeners II-1, II-9, III-1, b-11, b-14, IX-A3; post-emergence method, three-leaf stage; 500 g or less of herbicide (A) per hectare; three to four weeks
Method: Seeds or rhizome pieces of monocotyledonous and dicotyledonous weeds were placed into sandy loam soil in plastic pots, covered with soil and grown in a greenhouse under good growth conditions. Three weeks after sowing, the test plants were treated at the three-leaf stage. The compounds according to the invention, formulated as wettable powders or as emulsion concentrates, were sprayed onto the green parts of the plants at various dosages using a water application rate of 300 to 800 l/ha (converted). The test plants were stood in the greenhouse under optimum growth conditions for about three to four weeks, and the action of the preparations was then scored visually in comparison to untreated controls. Post-emergence, too, the herbicide/safener combinations according to the invention have good herbicidal activity against a broad spectrum of economically important weed grasses and broad-leaved weeds.

[3] = test system: cotton, oilseed rape, sugar beet and Gramineae crops such as barley, wheat, rye, millet, corn or rice; assay: Compatibility with crop plants (greenhouse, visual scoring); format: in vivo; settings: herbicide/safener combination, above all with safeners II-1, II-9, III-1, b-11, b-14, IX-A3; pre-emergence method or post-emergence method; four to five weeks after application
Excerpt: In further greenhouse trials, seeds of a relatively large number of crop plants and weeds were placed into sandy loam soil and covered with soil. Some of the pots were immediately treated as described in Section 1, the others were placed in a greenhouse until the plants had developed two to three true leaves and were then sprayed with various dosages of the herbicide/safener combinations according to the invention, as described in Section 2.

With `CC1(C)CC(S(=O)(=O)C(Cl)c2ccccc2OC(F)(F)F)=NO1` (stereo not drawn) [I-10.1] the “herbicidal activity against harmful plants (optical scoring of damage vs untreated controls)” value [1] was “very good herbicidal activity”, the “herbicidal activity against harmful plants (visual scoring vs untreated controls)” value [2] was “very good herbicidal activity” and the “damage to crop plants (visual scoring)” value [3] was “did not cause any damage”.
`Cn1nc(C(F)(F)F)c(C(Br)S(=O)(=O)C2=NOC(C)(C)C2)c1OC(F)F` (stereo not drawn) [I-275.1] was tested, and the “herbicidal activity against harmful plants (optical scoring of damage vs untreated controls)” value [1] was “very good herbicidal activity”, the “herbicidal activity against harmful plants (visual scoring vs untreated controls)” value [2] was “very good herbicidal activity” and the “damage to crop plants (visual scoring)” value [3] was “did not cause any damage”.
`CC1(C)CC(S(=O)(=O)C(Cl)c2ccccc2Cl)=NO1` (stereo not drawn) [I-6.1] was tested, and the “herbicidal activity against harmful plants (optical scoring of damage vs untreated controls)” value [1] was “very good herbicidal activity”, the “herbicidal activity against harmful plants (visual scoring vs untreated controls)” value [2] was “very good herbicidal activity” and the “damage to crop plants (visual scoring)” value [3] was “did not cause any damage”.
For `CC1(C)CC(S(=O)(=O)C(F)c2cc(F)ccc2F)=NO1` (stereo not drawn) [I-249.1], the “herbicidal activity against harmful plants (optical scoring of damage vs untreated controls)” value [1] was “very good herbicidal activity”, the “herbicidal activity against harmful plants (visual scoring vs untreated controls)” value [2] was “very good herbicidal activity” and the “damage to crop plants (visual scoring)” value [3] was “did not cause any damage”.
`Cn1nc(C(F)(F)F)c(C(F)S(=O)(=O)C2=NOC(C)(C)C2)c1OC(F)F` (stereo not drawn) [I-260.1] was tested, and the “herbicidal activity against harmful plants (optical scoring of damage vs untreated controls)” value [1] was “very good herbicidal activity”, the “herbicidal activity against harmful plants (visual scoring vs untreated controls)” value [2] was “very good herbicidal activity” and the “damage to crop plants (visual scoring)” value [3] was “did not cause any damage”.
In the case of `CC1(C)CC(S(=O)(=O)C(Cl)c2cc(F)ccc2F)=NO1` (stereo not drawn) [I-2.1], the “herbicidal activity against harmful plants (optical scoring of damage vs untreated controls)” value [1] is reported as “very good herbicidal activity”, the “herbicidal activity against harmful plants (visual scoring vs untreated controls)” value [2] is reported as “very good herbicidal activity” and the “damage to crop plants (visual scoring)” value [3] is reported as “did not cause any damage”.
In the case of `CC1(C)CC(S(=O)(=O)C(F)c2c(F)cccc2F)=NO1` (stereo not drawn) [I-250.1], the “herbicidal activity against harmful plants (optical scoring of damage vs untreated controls)” value [1] is reported as “very good herbicidal activity”, the “herbicidal activity against harmful plants (visual scoring vs untreated controls)” value [2] is reported as “very good herbicidal activity” and the “damage to crop plants (visual scoring)” value [3] is reported as “did not cause any damage”.
For `CC1(C)CC(S(=O)(=O)C(Cl)c2cc(C(F)(F)F)ccc2F)=NO1` (stereo not drawn) [I-4.1], the “herbicidal activity against harmful plants (optical scoring of damage vs untreated controls)” value [1] was “very good herbicidal activity”, the “herbicidal activity against harmful plants (visual scoring vs untreated controls)” value [2] was “very good herbicidal activity” and the “damage to crop plants (visual scoring)” value [3] was “did not cause any damage”.
For `CC1(C)CC(S(=O)(=O)C(Cl)c2cc(F)cc(F)c2F)=NO1` (stereo not drawn) [I-129.1], the “herbicidal activity against harmful plants (optical scoring of damage vs untreated controls)” value [1] was “very good herbicidal activity”, the “herbicidal activity against harmful plants (visual scoring vs untreated controls)” value [2] was “very good herbicidal activity” and the “damage to crop plants (visual scoring)” value [3] was “did not cause any damage”.
In the case of `CCC1(C)CC(S(=O)(=O)C(Cl)c2c(C(F)(F)F)nn(C)c2Cl)=NO1` (stereo not drawn) [I-216.2], the “herbicidal activity against harmful plants (optical scoring of damage vs untreated controls)” value [1] is reported as “very good herbicidal activity”, the “herbicidal activity against harmful plants (visual scoring vs untreated controls)” value [2] is reported as “very good herbicidal activity” and the “damage to crop plants (visual scoring)” value [3] is reported as “did not cause any damage”.
`CCC1(C)CC(S(=O)(=O)C(Cl)c2cc(F)ccc2F)=NO1` (stereo not drawn) [I-2.2] was tested, and the “herbicidal activity against harmful plants (optical scoring of damage vs untreated controls)” value [1] was “very good herbicidal activity”, the “herbicidal activity against harmful plants (visual scoring vs untreated controls)” value [2] was “very good herbicidal activity” and the “damage to crop plants (visual scoring)” value [3] was “did not cause any damage”.
For `Cn1nc(C(F)(F)F)c(C(Cl)S(=O)(=O)C2=NOC(C)(C)C2)c1OC(F)F` (stereo not drawn) [I-206.1], the “herbicidal activity against harmful plants (optical scoring of damage vs untreated controls)” value [1] was “very good herbicidal activity”, the “herbicidal activity against harmful plants (visual scoring vs untreated controls)” value [2] was “very good herbicidal activity” and the “damage to crop plants (visual scoring)” value [3] was “did not cause any damage”.
With `CC1(C)CC(S(=O)(=O)C(Cl)c2c(Cl)cccc2Cl)=NO1` (stereo not drawn) [I-109.1] the “herbicidal activity against harmful plants (optical scoring of damage vs untreated controls)” value [1] was “very good herbicidal activity”, the “herbicidal activity against harmful plants (visual scoring vs untreated controls)” value [2] was “very good herbicidal activity” and the “damage to crop plants (visual scoring)” value [3] was “did not cause any damage”.
With `CC1(C)CC(S(=O)(=O)C(Cl)c2c(F)cccc2F)=NO1` (stereo not drawn) [I-3.1] the “herbicidal activity against harmful plants (optical scoring of damage vs untreated controls)” value [1] was “very good herbicidal activity”, the “herbicidal activity against harmful plants (visual scoring vs untreated controls)” value [2] was “very good herbicidal activity” and the “damage to crop plants (visual scoring)” value [3] was “did not cause any damage”.
In the case of `CCC1(C)CC(S(=O)(=O)C(Cl)c2c(F)cccc2F)=NO1` (stereo not drawn) [I-3.2], the “herbicidal activity against harmful plants (optical scoring of damage vs untreated controls)” value [1] is reported as “very good herbicidal activity”, the “herbicidal activity against harmful plants (visual scoring vs untreated controls)” value [2] is reported as “very good herbicidal activity” and the “damage to crop plants (visual scoring)” value [3] is reported as “did not cause any damage”.
In the case of `Cn1nc(C(F)(F)F)c(C(Cl)[S+]([O-])C2=NOC(C)(C)C2)c1OC(F)F` (stereo not drawn) [I-289.1], the “herbicidal activity against harmful plants (optical scoring of damage vs untreated controls)” value [1] is reported as “very good herbicidal activity”, the “herbicidal activity against harmful plants (visual scoring vs untreated controls)” value [2] is reported as “very good herbicidal activity” and the “damage to crop plants (visual scoring)” value [3] is reported as “did not cause any damage”.
With `Cn1nc(C(F)(F)F)c(C(Cl)S(=O)(=O)C2=NOC(C)(C)C2)c1Cl` (stereo not drawn) [I-216.1] the “herbicidal activity against harmful plants (optical scoring of damage vs untreated controls)” value [1] was “very good herbicidal activity”, the “herbicidal activity against harmful plants (visual scoring vs untreated controls)” value [2] was “very good herbicidal activity” and the “damage to crop plants (visual scoring)” value [3] was “did not cause any damage”.
In the case of `CC1(C)CC(S(=O)(=O)C(Cl)c2c(F)cccc2Cl)=NO1` (stereo not drawn) [I-5.1], the “herbicidal activity against harmful plants (optical scoring of damage vs untreated controls)” value [1] is reported as “very good herbicidal activity”, the “herbicidal activity against harmful plants (visual scoring vs untreated controls)” value [2] is reported as “very good herbicidal activity” and the “damage to crop plants (visual scoring)” value [3] is reported as “did not cause any damage”.
`CCC1(C)CC(S(=O)(=O)C(Cl)c2cc(C(F)(F)F)ccc2Cl)=NO1` (stereo not drawn) [I-98.2] was tested, and the “herbicidal activity against harmful plants (optical scoring of damage vs untreated controls)” value [1] was “very good herbicidal activity”, the “herbicidal activity against harmful plants (visual scoring vs untreated controls)” value [2] was “very good herbicidal activity” and the “damage to crop plants (visual scoring)” value [3] was “did not cause any damage”.
With `CC1(C)CC(S(=O)(=O)C(Cl)c2ccccc2)=NO1` (stereo not drawn) [I-1.1] the “herbicidal activity against harmful plants (optical scoring of damage vs untreated controls)” value [1] was “very good herbicidal activity”, the “herbicidal activity against harmful plants (visual scoring vs untreated controls)” value [2] was “very good herbicidal activity” and the “damage to crop plants (visual scoring)” value [3] was “did not cause any damage”.
`CC1(C)CC(S(=O)(=O)C(Cl)c2c(F)cccc2C(F)(F)F)=NO1` (stereo not drawn) [I-117.1] was tested, and the “herbicidal activity against harmful plants (optical scoring of damage vs untreated controls)” value [1] was “very good herbicidal activity”, the “herbicidal activity against harmful plants (visual scoring vs untreated controls)” value [2] was “very good herbicidal activity” and the “damage to crop plants (visual scoring)” value [3] was “did not cause any damage”.

Source: patent US20070015661A1, “Herbicide/safener combination” (Bayer CropScience GmbH, priority 2005, published 2007)
